{"source": "ChEMBL document CHEMBL3632469", "about": "“Discovery of dihydroquinazolinone derivatives as potent, selective, and CNS-penetrant M(1) and M(4) muscarinic acetylcholine receptors agonists” (Bioorg Med Chem Lett, 2015)", "key": {"[1]": {"target": "T1, Muscarinic acetylcholine receptor M5 (Homo sapiens) (UniProt P08912)", "T1 sequence (whole entry)": "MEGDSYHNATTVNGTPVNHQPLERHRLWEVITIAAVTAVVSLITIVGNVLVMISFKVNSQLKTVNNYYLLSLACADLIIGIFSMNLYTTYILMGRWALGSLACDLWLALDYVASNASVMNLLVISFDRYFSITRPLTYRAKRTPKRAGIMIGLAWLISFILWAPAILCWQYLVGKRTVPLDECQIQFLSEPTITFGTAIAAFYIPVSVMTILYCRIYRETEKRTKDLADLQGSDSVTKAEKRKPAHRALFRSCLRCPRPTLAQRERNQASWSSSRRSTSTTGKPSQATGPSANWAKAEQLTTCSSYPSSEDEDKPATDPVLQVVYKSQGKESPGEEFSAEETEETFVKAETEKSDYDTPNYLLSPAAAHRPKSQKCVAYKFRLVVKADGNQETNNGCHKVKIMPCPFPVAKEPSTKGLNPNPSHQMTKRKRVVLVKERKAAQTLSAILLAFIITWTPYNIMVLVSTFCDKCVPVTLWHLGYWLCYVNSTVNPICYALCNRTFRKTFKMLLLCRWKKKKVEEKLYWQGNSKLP", "assay": "Agonist activity at human muscarinic M5 acetylcholine receptor expressed in CHO cells assessed as calcium mobilization at 30 uM by FLIPR assay", "format": "functional, cell-based"}, "[2]": {"assay": "Permeability of the compound at pH 7.4 by PAMPA method", "format": "physicochemical", "conditions": "read-out: permeability; call rule not given here"}, "Cytochrome P450 2C9": {"target": "Cytochrome P450 2C9 (Homo sapiens, UniProt P11712)", "assay": "Inhibition of CYP2C9 (unknown origin)", "format": "ADME"}, "Cytochrome P450 3A4": {"target": "Cytochrome P450 3A4 (Homo sapiens, UniProt P08684)", "assay": "Inhibition of CYP3A4 (unknown origin)", "format": "ADME"}, "[3]": {"target": "Aryl hydrocarbon receptor (Homo sapiens, UniProt P35869)", "sequence (P35869 whole entry)": "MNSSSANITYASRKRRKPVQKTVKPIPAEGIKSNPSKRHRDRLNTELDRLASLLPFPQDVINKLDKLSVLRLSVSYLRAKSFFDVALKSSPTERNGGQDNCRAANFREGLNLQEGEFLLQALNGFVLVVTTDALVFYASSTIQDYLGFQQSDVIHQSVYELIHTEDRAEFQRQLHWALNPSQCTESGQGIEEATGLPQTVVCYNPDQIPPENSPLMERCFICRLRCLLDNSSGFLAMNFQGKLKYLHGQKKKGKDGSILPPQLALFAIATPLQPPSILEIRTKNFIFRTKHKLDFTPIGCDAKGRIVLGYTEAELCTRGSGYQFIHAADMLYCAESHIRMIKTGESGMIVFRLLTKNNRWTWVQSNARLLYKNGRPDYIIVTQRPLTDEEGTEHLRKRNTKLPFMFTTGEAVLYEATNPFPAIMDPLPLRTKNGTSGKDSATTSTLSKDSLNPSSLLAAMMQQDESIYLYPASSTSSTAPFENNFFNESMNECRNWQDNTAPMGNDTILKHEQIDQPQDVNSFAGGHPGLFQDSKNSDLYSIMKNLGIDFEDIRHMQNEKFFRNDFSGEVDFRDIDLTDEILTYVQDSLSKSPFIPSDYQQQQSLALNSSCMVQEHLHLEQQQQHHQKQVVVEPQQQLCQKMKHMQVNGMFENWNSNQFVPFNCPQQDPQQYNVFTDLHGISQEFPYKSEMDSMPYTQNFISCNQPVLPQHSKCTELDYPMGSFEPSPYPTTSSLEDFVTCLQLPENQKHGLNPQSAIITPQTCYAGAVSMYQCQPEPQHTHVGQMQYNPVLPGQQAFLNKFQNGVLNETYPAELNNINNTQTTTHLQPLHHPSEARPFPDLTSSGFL", "assay": "Induction of human AhR"}, "P-glycoprotein": {"test_system": "P-glycoprotein", "assay": "Binding affinity to p-glycoprotein (unknown origin) assessed as efflux ratio by cell based assay", "format": "ADME", "conditions": "human, not told"}, "[4]": {"assay": "Ratio of drug level in brain to blood in rat", "format": "ADME, tissue-based"}, "Rattus norvegicus": {"test_system": "Rattus norvegicus", "assay": "Antipsychotic-like activity in sc dosed rat assessed as inhibition of METH-induced locomotor hyperactivity", "format": "functional"}, "[5]": {"target": "Adenosine receptor A3 (Homo sapiens) (UniProt P0DMS8)", "assay": "Agonist activity at adenosine a3 receptor (unknown origin) expressed in CHO cells assessed as calcium mobilization at 3 uM", "format": "functional, cell-based"}, "[6]": {"target": "Beta-1 adrenergic receptor (Homo sapiens) (UniProt P08588)", "sequence (P08588 whole entry, looked up)": "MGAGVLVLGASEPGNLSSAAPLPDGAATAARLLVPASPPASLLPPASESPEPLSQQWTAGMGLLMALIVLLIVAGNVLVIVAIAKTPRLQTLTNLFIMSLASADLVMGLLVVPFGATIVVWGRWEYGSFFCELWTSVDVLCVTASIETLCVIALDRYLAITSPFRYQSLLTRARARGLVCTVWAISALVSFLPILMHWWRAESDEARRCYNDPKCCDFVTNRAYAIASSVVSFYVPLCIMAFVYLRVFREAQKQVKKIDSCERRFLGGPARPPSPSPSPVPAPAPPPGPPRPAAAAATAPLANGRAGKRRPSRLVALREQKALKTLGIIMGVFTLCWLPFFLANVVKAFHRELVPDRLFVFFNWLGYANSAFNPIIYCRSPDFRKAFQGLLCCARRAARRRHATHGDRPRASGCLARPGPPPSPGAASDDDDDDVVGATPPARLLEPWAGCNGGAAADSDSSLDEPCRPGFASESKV", "assay": "Agonist activity at adrenergic beta1 receptor (unknown origin) expressed in CHO cells assessed as calcium mobilization at 3 uM", "format": "functional, cell-based"}, "[7]": {"target": "Beta-2 adrenergic receptor (Homo sapiens) (UniProt P07550)", "assay": "Agonist activity at adrenergic beta2 receptor (unknown origin) expressed in CHO cells assessed as calcium mobilization at 3 uM", "format": "functional, cell-based"}, "[8]": {"target": "Type-1 angiotensin II receptor (Homo sapiens) (UniProt P30556)", "assay": "Agonist activity at angiotensin 2 type 1 receptor (unknown origin) expressed in CHO cells assessed as calcium mobilization at 3 uM", "format": "functional, cell-based"}, "[9]": {"target": "D(2) dopamine receptor (Homo sapiens) (UniProt P14416)", "sequence (P14416 whole entry)": "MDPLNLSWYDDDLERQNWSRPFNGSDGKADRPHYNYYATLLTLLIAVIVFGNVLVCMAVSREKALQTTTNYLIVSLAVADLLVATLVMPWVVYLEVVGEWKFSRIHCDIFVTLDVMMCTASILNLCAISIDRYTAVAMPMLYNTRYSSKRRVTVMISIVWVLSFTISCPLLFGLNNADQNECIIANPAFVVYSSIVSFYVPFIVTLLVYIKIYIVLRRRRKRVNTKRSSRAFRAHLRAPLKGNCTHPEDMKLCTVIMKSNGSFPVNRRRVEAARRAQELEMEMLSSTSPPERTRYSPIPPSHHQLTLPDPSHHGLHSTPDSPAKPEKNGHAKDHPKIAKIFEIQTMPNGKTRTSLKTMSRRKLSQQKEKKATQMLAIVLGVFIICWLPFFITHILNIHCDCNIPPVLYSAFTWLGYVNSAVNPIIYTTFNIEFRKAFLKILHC", "assay": "Agonist activity at dopamine D2L receptor (unknown origin) expressed in CHO cells assessed as calcium mobilization at 3 uM", "format": "functional, cell-based"}, "[10]": {"target": "D(1B) dopamine receptor (Homo sapiens) (UniProt P21918)", "sequence (P21918 whole entry)": "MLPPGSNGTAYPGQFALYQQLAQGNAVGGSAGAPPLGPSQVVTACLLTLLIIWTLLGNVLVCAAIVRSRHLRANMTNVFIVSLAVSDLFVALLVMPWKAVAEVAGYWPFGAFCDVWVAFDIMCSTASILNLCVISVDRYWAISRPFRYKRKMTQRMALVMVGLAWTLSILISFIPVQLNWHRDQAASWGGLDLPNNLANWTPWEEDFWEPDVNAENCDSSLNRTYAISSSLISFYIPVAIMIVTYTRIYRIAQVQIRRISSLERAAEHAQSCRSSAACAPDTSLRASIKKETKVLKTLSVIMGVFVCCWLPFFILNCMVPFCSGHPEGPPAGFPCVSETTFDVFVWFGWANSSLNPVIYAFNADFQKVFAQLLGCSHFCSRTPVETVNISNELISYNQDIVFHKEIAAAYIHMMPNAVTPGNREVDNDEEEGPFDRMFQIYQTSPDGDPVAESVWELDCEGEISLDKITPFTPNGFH", "assay": "Agonist activity at dopamine D5 receptor (unknown origin) expressed in CHO cells assessed as calcium mobilization at 3 uM", "format": "functional, cell-based"}, "[11]": {"target": "Endothelin-1 receptor (Homo sapiens) (UniProt P25101)", "sequence (P25101 whole entry)": "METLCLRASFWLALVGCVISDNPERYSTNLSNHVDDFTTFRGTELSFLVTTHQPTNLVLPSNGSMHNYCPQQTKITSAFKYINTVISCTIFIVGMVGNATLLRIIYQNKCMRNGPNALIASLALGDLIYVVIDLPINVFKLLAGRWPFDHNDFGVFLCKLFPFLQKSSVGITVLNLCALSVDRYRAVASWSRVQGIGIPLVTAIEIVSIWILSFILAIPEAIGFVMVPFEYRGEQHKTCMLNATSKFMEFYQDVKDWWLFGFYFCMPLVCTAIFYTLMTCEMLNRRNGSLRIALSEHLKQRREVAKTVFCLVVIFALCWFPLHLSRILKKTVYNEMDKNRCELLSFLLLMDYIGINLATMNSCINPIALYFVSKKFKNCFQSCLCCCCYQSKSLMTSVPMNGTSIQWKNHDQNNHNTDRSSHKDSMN", "assay": "Agonist activity at endothelin a receptor (unknown origin) expressed in CHO cells assessed as calcium mobilization at 3 uM", "format": "functional, cell-based"}, "[12]": {"target": "Histamine H2 receptor (Homo sapiens) (UniProt P25021)", "assay": "Agonist activity at histamine H2 receptor (unknown origin) expressed in CHO cells assessed as calcium mobilization at 3 uM", "format": "functional, cell-based"}, "[13]": {"target": "Histamine H3 receptor (Homo sapiens) (UniProt Q9Y5N1)", "sequence (Q9Y5N1 whole entry)": "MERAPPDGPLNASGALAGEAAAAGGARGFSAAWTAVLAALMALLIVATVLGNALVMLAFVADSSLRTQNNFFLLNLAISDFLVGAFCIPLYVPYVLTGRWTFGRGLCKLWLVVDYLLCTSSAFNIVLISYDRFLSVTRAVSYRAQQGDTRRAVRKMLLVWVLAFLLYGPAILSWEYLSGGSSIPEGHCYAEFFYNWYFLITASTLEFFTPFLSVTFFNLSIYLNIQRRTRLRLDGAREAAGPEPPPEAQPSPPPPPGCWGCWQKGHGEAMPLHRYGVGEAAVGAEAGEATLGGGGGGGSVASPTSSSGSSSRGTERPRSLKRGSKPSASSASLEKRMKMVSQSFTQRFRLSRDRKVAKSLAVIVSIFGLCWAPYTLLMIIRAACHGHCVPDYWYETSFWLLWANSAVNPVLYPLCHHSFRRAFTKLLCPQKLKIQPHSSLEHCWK", "assay": "Agonist activity at histamine H3 receptor (unknown origin) expressed in CHO cells assessed as calcium mobilization at 3 uM", "format": "functional, cell-based"}, "[14]": {"target": "Cysteinyl leukotriene receptor 2 (Homo sapiens) (UniProt Q9NS75)", "sequence (Q9NS75 whole entry)": "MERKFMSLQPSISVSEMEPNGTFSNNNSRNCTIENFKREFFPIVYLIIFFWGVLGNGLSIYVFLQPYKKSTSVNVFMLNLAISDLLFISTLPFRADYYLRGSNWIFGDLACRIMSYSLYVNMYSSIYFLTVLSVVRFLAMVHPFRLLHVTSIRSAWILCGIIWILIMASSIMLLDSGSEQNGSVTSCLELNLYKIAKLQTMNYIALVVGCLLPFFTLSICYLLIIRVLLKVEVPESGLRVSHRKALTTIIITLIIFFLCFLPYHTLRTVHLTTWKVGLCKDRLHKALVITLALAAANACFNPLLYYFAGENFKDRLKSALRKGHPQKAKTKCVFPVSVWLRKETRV", "assay": "Agonist activity at CysLT2 receptor (unknown origin) expressed in CHO cells assessed as calcium mobilization at 3 uM", "format": "functional, cell-based"}, "[15]": {"target": "Substance-P receptor (Homo sapiens) (UniProt P25103)", "assay": "Agonist activity at TaCR1 receptor (unknown origin) expressed in CHO cells assessed as calcium mobilization at 3 uM", "format": "functional, cell-based"}, "[16]": {"target": "Mu-type opioid receptor (Homo sapiens) (UniProt P35372)", "assay": "Agonist activity at ppiate mu receptor (unknown origin) expressed in CHO cells assessed as calcium mobilization at 3 uM", "format": "functional, cell-based"}, "[17]": {"target": "5-hydroxytryptamine receptor 1A (Homo sapiens) (UniProt P08908)", "sequence (P08908 whole entry)": "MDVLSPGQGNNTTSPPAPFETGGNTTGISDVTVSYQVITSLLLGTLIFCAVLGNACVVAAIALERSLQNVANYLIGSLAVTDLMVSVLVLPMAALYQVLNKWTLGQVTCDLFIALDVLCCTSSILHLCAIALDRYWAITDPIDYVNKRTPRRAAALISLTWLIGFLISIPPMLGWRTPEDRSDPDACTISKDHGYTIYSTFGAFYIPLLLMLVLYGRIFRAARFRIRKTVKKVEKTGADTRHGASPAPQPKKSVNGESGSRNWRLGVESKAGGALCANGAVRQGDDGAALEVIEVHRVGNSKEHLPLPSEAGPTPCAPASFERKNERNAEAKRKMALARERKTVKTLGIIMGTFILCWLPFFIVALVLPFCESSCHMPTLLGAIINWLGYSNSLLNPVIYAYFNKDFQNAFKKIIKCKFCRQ", "assay": "Agonist activity at 5-HT1a receptor (unknown origin) expressed in CHO cells assessed as calcium mobilization at 3 uM", "format": "functional, cell-based"}, "[18]": {"target": "5-hydroxytryptamine receptor 2A (Homo sapiens) (UniProt P28223)", "assay": "Agonist activity at 5-HT2a receptor (unknown origin) expressed in CHO cells assessed as calcium mobilization at 3 uM", "format": "functional, cell-based"}, "[19]": {"target": "5-hydroxytryptamine receptor 7 (Homo sapiens) (UniProt P34969)", "sequence (P34969 whole entry)": "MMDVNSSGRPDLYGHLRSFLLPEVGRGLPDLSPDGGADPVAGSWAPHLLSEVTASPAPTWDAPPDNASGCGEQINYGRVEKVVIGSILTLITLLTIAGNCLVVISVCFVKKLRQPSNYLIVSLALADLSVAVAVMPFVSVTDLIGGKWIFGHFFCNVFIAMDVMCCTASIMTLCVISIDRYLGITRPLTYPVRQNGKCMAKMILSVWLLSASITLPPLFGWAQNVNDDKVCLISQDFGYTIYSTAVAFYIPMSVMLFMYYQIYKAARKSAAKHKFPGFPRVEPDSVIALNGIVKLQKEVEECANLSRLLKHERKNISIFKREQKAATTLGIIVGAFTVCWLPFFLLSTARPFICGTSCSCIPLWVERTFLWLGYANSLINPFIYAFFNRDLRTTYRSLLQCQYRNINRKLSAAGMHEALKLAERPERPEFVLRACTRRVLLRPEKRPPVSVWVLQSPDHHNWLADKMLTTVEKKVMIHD", "assay": "Agonist activity at 5-HT7B receptor (unknown origin) expressed in CHO cells assessed as calcium mobilization at 3 uM", "format": "functional, cell-based"}, "[20]": {"target": "Adenosine receptor A1 (Homo sapiens) (UniProt P30542)", "sequence (P30542 whole entry)": "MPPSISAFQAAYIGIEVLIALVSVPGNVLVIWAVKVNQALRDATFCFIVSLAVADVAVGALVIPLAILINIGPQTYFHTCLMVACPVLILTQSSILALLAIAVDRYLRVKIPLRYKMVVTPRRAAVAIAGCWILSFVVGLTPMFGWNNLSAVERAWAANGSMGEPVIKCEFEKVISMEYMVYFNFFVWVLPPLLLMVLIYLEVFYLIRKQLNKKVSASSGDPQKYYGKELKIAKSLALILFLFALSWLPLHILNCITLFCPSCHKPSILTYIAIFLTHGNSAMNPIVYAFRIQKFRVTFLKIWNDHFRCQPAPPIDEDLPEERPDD", "assay": "Antagonist activity at adenosine a1 receptor (unknown origin) expressed in CHO cells assessed as calcium mobilization at 3 uM", "format": "functional, cell-based"}, "[21]": {"target": "Beta-1 adrenergic receptor (Homo sapiens) (UniProt P08588)", "assay": "Antagonist activity at adrenergic beta1 receptor (unknown origin) expressed in CHO cells assessed as calcium mobilization at 3 uM", "format": "functional, cell-based"}, "CHO": {"test_system": "CHO", "assay": "Antagonist activity at GaBaB receptor (unknown origin) expressed in CHO cells assessed as calcium mobilization at 3 uM", "format": "cell-based", "conditions": "Homo sapiens"}, "[22]": {"target": "Histamine H3 receptor (Homo sapiens) (UniProt Q9Y5N1)", "assay": "Antagonist activity at histamine H3 receptor (unknown origin) expressed in CHO cells assessed as calcium mobilization at 3 uM", "format": "functional, cell-based"}, "[23]": {"target": "Nociceptin receptor (Homo sapiens) (UniProt P41146)", "assay": "Antagonist activity at OPRL1 receptor (unknown origin) expressed in CHO cells assessed as calcium mobilization at 3 uM", "format": "functional, cell-based"}, "[24]": {"target": "5-hydroxytryptamine receptor 1A (Homo sapiens) (UniProt P08908)", "assay": "Antagonist activity at 5-HT1a receptor (unknown origin) expressed in CHO cells assessed as calcium mobilization at 3 uM", "format": "functional, cell-based"}, "[25]": {"target": "5-hydroxytryptamine receptor 4 (Homo sapiens) (UniProt Q13639)", "assay": "Antagonist activity at 5-HT4B receptor (unknown origin) expressed in CHO cells assessed as calcium mobilization at 3 uM", "format": "functional, cell-based"}, "[26]": {"target": "5-hydroxytryptamine receptor 7 (Homo sapiens) (UniProt P34969)", "assay": "Antagonist activity at 5-HT7B receptor (unknown origin) expressed in CHO cells assessed as calcium mobilization at 3 uM", "format": "functional, cell-based"}, "[27]": {"target": "P2Y purinoceptor 1 (Homo sapiens) (UniProt P47900)", "assay": "Antagonist activity at P2Y1 receptor (unknown origin) expressed in CHO cells assessed as calcium mobilization at 3 uM", "format": "functional, cell-based"}}, "note": "pIC50: −log10 of the molar value."}
{"smiles": "CCOC(=O)N1[C@@H]2CC[C@H]1C[C@H](CN1CC[C@@H](N3Cc4ccccc4NC3=O)C1)C2", "values": [{"measurement": "Activity", "setting": "[1]", "value": 3, "unit": "%"}, {"measurement": "Papp", "setting": "[2]", "value": 53.8, "unit": "×10⁻⁶ cm/s"}, {"measurement": "pIC50", "setting": "Cytochrome P450 2C9", "value": "< 5.70"}, {"measurement": "pIC50", "setting": "Cytochrome P450 3A4", "value": "< 5.70"}, {"measurement": "Activity", "setting": "[3]", "value": "Not Active"}, {"measurement": "efflux ratio", "setting": "P-glycoprotein", "value": 1}, {"measurement": "Kp", "setting": "[4]", "value": 2.42}, {"measurement": "ED50", "setting": "Rattus norvegicus", "value": 3, "unit": "mg/kg"}, {"measurement": "Activity", "setting": "[5]", "value": 1.07, "unit": "%"}, {"measurement": "Activity", "setting": "[6]", "value": 0.03, "unit": "%"}, {"measurement": "Activity", "setting": "[7]", "value": -0.21, "unit": "%"}, {"measurement": "Activity", "setting": "[8]", "value": -0.18, "unit": "%"}, {"measurement": "Activity", "setting": "[9]", "value": 0.06, "unit": "%"}, {"measurement": "Activity", "setting": "[10]", "value": 0.08, "unit": "%"}, {"measurement": "Activity", "setting": "[11]", "value": 0.27, "unit": "%"}, {"measurement": "Activity", "setting": "[12]", "value": -0.83, "unit": "%"}, {"measurement": "Activity", "setting": "[13]", "value": -0.38, "unit": "%"}, {"measurement": "Activity", "setting": "[14]", "value": 0.03, "unit": "%"}, {"measurement": "Activity", "setting": "[15]", "value": -0.13, "unit": "%"}, {"measurement": "Activity", "setting": "[16]", "value": 1, "unit": "%"}, {"measurement": "Activity", "setting": "[17]", "value": 0.06, "unit": "%"}, {"measurement": "Activity", "setting": "[18]", "value": 0.07, "unit": "%"}, {"measurement": "Activity", "setting": "[19]", "value": -1.12, "unit": "%"}, {"measurement": "inhibition", "setting": "[20]", "value": -3.67, "unit": "%"}, {"measurement": "inhibition", "setting": "[21]", "value": 27.6, "unit": "%"}, {"measurement": "inhibition", "setting": "CHO", "value": 4.47, "unit": "%"}, {"measurement": "inhibition", "setting": "[22]", "value": 13.7, "unit": "%"}, {"measurement": "inhibition", "setting": "[23]", "value": -4.61, "unit": "%"}, {"measurement": "inhibition", "setting": "[24]", "value": -3.46, "unit": "%"}, {"measurement": "inhibition", "setting": "[25]", "value": -1.57, "unit": "%"}, {"measurement": "inhibition", "setting": "[26]", "value": 15.4, "unit": "%"}, {"measurement": "inhibition", "setting": "[27]", "value": -8.79, "unit": "%"}]}
